Measured values taken from publication PMC10976477 (RSC Advances, 2024).

Legend:
[1] = DPPH radical scavenging assay; conditions: read-out: IC50 (μM) ± SEM DPPH
[2] = ABTS radical cation scavenging assay; conditions: read-out: IC50 (μM) ± SEM ABTS
[3] = Ferric ion reducing antioxidant power; conditions: μM equivalent to the standard antioxidant ascorbic acid
human MAO-B = target: T1, human MAO-B (Homo sapiens, UniProt P27338); experiment: MAO-B inhibition assay; format: biochemical; conditions: for SI = IC50 of MAO-A/IC50 of MAO-B: selectivity index
T1 sequence (P27338 1-520): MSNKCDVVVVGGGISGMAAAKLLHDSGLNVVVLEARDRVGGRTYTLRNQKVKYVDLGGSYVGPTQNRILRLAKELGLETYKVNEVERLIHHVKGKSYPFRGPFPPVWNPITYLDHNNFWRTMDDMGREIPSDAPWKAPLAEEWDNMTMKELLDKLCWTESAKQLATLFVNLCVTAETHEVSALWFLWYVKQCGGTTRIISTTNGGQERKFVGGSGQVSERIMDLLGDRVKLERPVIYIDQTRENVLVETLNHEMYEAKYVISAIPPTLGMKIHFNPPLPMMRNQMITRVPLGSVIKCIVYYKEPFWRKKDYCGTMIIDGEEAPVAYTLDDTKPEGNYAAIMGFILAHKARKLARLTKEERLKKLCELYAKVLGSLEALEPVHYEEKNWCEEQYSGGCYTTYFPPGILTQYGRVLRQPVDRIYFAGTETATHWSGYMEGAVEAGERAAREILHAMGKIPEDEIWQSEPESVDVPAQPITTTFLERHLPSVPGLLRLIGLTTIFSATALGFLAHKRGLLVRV

eeAChE = eeAChE (Electrophorus electricus, UniProt O42275); experiment: Cholinesterase inhibition, Ellman's assay; format: biochemical, electric eel; conditions: for SI = IC50 of BChE/IC50 of AChE: selectivity index
human MAO-A = target: T2, human MAO-A (Homo sapiens, UniProt P21397); experiment: MAO-A inhibition assay; format: biochemical
T2 sequence (P21397 1-527): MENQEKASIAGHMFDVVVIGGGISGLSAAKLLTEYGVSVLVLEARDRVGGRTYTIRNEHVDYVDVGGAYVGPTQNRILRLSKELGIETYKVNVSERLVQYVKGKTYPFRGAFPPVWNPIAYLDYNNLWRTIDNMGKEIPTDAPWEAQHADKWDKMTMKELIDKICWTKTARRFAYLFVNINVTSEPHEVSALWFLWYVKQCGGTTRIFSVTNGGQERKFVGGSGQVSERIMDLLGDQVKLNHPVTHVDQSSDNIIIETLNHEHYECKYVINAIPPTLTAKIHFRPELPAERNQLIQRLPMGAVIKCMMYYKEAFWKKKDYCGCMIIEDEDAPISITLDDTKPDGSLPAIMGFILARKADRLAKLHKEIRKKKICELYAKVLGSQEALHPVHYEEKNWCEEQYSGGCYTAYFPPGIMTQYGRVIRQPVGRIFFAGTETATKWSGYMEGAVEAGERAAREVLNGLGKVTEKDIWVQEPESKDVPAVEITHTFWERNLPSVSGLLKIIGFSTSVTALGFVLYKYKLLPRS

eqBChE = eqBChE (Equus caballus, UniProt P81908); experiment: biochemical
Aβ1–42 peptide = Aβ1–42 peptide (Homo sapiens, UniProt P05067); experiment: ThT fluorescence assay for self-mediated Aβ1–42 aggregation; format: biochemical; conditions: for inhibition of amyloid beta fibrils: after a 24-hour equimolar administration, ThT fluorescence (Fig. 4)
COX-2 = target: T3, COX-2 (Homo sapiens, UniProt P35354); experiment: biochemical
T3 sequence (P35354 18-604): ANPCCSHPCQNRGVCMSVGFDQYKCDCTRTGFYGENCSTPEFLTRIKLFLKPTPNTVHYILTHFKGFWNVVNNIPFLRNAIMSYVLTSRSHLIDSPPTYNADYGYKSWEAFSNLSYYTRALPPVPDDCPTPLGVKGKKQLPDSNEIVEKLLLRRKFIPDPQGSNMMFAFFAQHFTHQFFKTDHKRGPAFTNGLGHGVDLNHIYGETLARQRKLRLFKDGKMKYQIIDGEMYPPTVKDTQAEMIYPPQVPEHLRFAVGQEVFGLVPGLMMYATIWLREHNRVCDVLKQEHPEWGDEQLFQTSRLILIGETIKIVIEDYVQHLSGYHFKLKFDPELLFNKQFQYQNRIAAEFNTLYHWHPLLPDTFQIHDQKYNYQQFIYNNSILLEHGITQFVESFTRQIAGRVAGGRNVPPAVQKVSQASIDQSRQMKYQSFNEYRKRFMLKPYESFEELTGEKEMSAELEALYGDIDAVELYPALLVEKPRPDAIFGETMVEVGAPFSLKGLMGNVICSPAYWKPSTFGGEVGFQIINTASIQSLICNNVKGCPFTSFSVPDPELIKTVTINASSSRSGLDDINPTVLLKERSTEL

SH-SY5Y cells = experiment: SH-SY5Y neuroblastoma cell toxicity; format: cell-based, human; conditions: for neurotoxicity / cytotoxicity on SH-SY5Y cells: 10–100 μM, 48 h incubation, MTT
HEK-293 cells = experiment: Cell viability assay on normal human embryonic HEK-293 cells; format: cell-based; conditions: 1, 10, 20, 40 and 100 μM, MTT
[4] = In vivo antioxidant potential in mice; conditions: 5 mg kg^−1, SOD, CAT, GSH

Sequence of eqBChE (P81908 whole entry): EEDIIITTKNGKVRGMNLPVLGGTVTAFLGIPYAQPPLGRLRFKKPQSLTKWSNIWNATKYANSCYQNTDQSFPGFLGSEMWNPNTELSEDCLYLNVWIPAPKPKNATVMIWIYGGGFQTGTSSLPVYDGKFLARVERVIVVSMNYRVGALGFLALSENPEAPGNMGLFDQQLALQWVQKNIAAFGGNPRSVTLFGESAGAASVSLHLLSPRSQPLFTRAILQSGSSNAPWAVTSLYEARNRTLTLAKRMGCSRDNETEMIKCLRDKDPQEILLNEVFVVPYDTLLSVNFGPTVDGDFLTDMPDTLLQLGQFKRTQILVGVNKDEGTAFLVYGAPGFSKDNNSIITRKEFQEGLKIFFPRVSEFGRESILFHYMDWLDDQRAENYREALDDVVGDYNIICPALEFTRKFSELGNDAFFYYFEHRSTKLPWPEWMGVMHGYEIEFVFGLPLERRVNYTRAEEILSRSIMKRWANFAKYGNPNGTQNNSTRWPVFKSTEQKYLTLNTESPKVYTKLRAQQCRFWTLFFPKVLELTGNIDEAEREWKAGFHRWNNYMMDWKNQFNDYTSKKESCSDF
Sequence of eeAChE (O42275 24-633): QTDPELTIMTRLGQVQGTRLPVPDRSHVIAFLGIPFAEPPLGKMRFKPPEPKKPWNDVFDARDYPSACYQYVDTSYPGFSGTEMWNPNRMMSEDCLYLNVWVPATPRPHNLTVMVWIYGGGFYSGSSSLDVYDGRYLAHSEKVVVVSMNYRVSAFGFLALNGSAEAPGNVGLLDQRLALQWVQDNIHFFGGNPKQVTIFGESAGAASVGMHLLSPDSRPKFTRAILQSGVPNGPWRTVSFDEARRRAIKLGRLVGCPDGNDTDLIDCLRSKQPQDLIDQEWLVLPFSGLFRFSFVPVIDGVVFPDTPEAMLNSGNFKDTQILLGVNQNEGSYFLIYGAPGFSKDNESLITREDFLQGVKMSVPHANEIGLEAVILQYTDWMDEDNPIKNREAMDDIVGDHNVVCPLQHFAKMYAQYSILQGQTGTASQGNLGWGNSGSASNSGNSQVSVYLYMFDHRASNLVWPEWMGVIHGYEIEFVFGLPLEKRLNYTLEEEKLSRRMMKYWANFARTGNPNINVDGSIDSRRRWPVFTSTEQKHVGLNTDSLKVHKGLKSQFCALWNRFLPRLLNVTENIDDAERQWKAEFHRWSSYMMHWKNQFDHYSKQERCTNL
Sequence of Aβ1–42 peptide (P05067 672-713): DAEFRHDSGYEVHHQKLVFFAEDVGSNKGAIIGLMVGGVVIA

Structure (SMILES) | IC50 [1] [µM] | IC50 [2] [µM] | FRAP value [3] [µM] | IC50 (human MAO-B) [µM] | IC50 (eeAChE) [µM] | IC50 (human MAO-A) [µM] | SI = IC50 of MAO-A/IC50 of MAO-B (human MAO-B) | SI = IC50 of BChE/IC50 of AChE (eeAChE) | IC50 (eqBChE) [µM] | IC50 (Aβ1–42 peptide) [µM] | inhibition of amyloid beta fibrils (Aβ1–42 peptide) | IC50 (COX-2) [µM] | neurotoxicity / cytotoxicity on SH-SY5Y cells (SH-SY5Y cells) | cytotoxic effect on viability of HEK-293 cells (HEK-293 cells) | in vivo antioxidant activity [4] | protective ability on SH-SY5Y (SH-SY5Y cells; at all concentrations (10–100 μM))
O=C1O[C@H]([C@@H](O)CO)C(O)=C1O [Ascorbic acid, reference compound] | 4.89 ± 0.09 | 6.08 ± 0.21 | 90.89 | – | – | – | – | – | – | – | – | – | – | – | – | –
COc1cc(/C=C/C(=O)NC(C)C(N)=O)ccc1O (centres unmarked) [Compound 18, (E)-N-(1-Amino-1-oxopropan-2-yl)-3-(4-hydroxy-3-methoxyphenyl)acrylamide] | 58.3 ± 1.21 | 45.1 ± 1.77 | 29.84 | 10 ± 1.03 | 58.4 ± 0.09 | – | – | – | – | – | – | – | – | – | – | –
CC(NC(=O)/C=C/c1ccc(-c2ccccc2)cc1)C(N)=O (centres unmarked) [Compound 20, (E)-3-([1,1′-Biphenyl]-4-yl)-N-(1-amino-1-oxopropan-2-yl)acryl-amide] | – | 77.1 ± 1.37 | 44.81 | 0.513 ± 0.07 | 13.51 ± 0.1 | 10 ± 0.925 | 19 | 6 | 84.1 ± 1.32 | – | – | – | – | – | – | –
COc1cc(/C=C/C(=O)Nc2nc3ccc(O)cc3s2)ccc1O [Compound 21, (E)-3-(4-Hydroxy-3-methoxyphenyl)-N-(6-hydroxybenzo[d]thiazol-2-yl)acrylamide] | 14.44 ± 0.13 | 6.29 ± 0.09 | 36.01 | 0.491 ± 0.024 | 29.84 ± 0.1 | 37.1 ± 1.03 | 75 | 1 | 43.1 ± 1.09 | – | – | – | – | – | – | –
O=C(/C=C/c1ccc(-c2ccccc2)cc1)Nc1nc2ccc(O)cc2s1 [Compound 23, (E)-3-([1,1′-Biphenyl]-4-yl)-N-(6-hydroxybenzo[d]thiazol-2-yl)acryl-amide] | 18.19 ± 0.11 | 12.1 ± 0.14 | 53.57 | – | 0.071 ± 0.1 | 10 ± 0.5 | 270 | 220 | 15.6 ± 0.901 | 23.1 ± 1.05 | approximately 30% | 14.4 ± 0.28 | did not show any apparent neurotoxicity | not showed in cytotoxic effect | good to moderate in vivo antioxidant activity | –
COc1cc(/C=C/C(=O)Nc2ccc(S(N)(=O)=O)cc2)ccc1O [Compound 24, (E)-3-(4-Hydroxy-3-methoxyphenyl)-N-(4-sulfamoylphenyl)acryl-amide] | 21.21 ± 0.15 | 48.8 ± 1.2 | 14.75 | 0.142 ± 0.011 | 10.74 ± 0.1 | 76.6 ± 1.22 | 539 | 5 | 58.2 ± 1.41 | – | – | – | – | – | – | –
COc1cc(/C=C/C(=O)Nc2ccc(S(N)(=O)=O)cc2)ccc1OCc1ccccc1 [Compound 25, (E)-3-(4-(Benzyloxy)-3-methoxyphenyl)-N-(4-sulfamoylphenyl)acrylamide] | 25 ± 1.16 | 20.7 ± 1.11 | 20.07 | 0.066 ± 0.004 | 0.835 ± 0.1 | 28.2 ± 1.09 | 426 | 17 | 14.1 ± 0.639 | 14.1 ± 0.24 | ~50% | 0.74 ± 0.13 | did not show any apparent neurotoxicity | not showed in cytotoxic effect | – | –
NS(=O)(=O)c1ccc(NC(=O)/C=C/c2ccc(-c3ccccc3)cc2)cc1 [Compound 26, (E)-3-([1,1′-Biphenyl]-4-yl)-N-(4-sulfamoylphenyl)acrylamide] | – | 40.6 ± 1.11 | 24.7 | 0.327 ± 0.011 | 0.89 ± 0.1 | 19.9 ± 1.17 | 60 | 1 | 1.03 ± 0.031 | 19.52 ± 0.18 | – | 2.19 ± 0.1 | – | not showed in cytotoxic effect | – | –
CC(NC(=O)c1cc(O)c(O)c(O)c1)C(N)=O (centres unmarked) [Compound 27, N-(1-Amino-1-oxopropan-2-yl)-3,4,5-trihydroxybenzamide] | 14.6 ± 0.52 | 20.4 ± 0.3 | – | 30.2 ± 1.18 | 49.03 ± 0.1 | – | – | – | – | – | – | – | – | – | – | 40–50%
NS(=O)(=O)c1ccc(NC(=O)c2cc(O)c(O)c(O)c2)cc1 [Compound 29, 3,4,5-Trihydroxy-N-(4-sulfamoylphenyl)benzamide] | 10.8 ± 0.63 | 23.5 ± 1.04 | – | 0.395 ± 0.34 | 3.64 ± 0.1 | 21.4 ± 0.316 | 54 | 9 | 34 ± 1.18 | – | – | – | did not show any apparent neurotoxicity | – | not determined to be active | –
COc1cc(/C=C/C(=O)CC(=O)/C=C/c2ccc(O)c(OC)c2)ccc1O [Curcumin, reference compound] | – | – | – | – | – | – | – | – | – | – | around 60% | – | – | – | – | –
COc1cc(/C=C/C(=O)O)ccc1O [Ferulic acid, trans-4-hydroxy-3-methoxycinnamic acid, reference compound] | 69.8 ± 1.48 | – | – | – | – | – | – | – | – | – | – | – | – | – | – | –
O=C(O)c1cc(O)c(O)c(O)c1 [Gallic acid, reference compound] | 35.2 ± 1.04 | 35.2 ± 1.19 | – | – | – | – | – | – | – | – | – | – | – | – | – | –
C#CCN[C@@H]1CCc2ccccc21 [rasigiline, rasagiline, reference compound] | – | – | – | – | – | – | – | – | – | – | – | – | no cytotoxicity | – | – | –
Cc1c(C)c2c(c(C)c1O)CCC(C)(C(=O)O)O2 (centres unmarked) [trolox, reference compound] | – | – | – | – | – | – | – | – | – | – | – | – | no cytotoxicity | – | significant antioxidant potential | –
